Laboratory results published in ChEMBL document CHEMBL1130860, “Thrombin receptor (PAR-1) antagonists. Heterocycle-based peptidomimetics of the SFLLR agonist motif” (Bioorg Med Chem Lett, 1998).
Numbered stars: 1 amine (or outer) side, 2 acyl side, 3 side chain; on linkers, the order of the positions; unused ones are H or OH. Square brackets hold non-standard residues; d marks the D form. Peptide text beside a SMILES is read from it. * marks the point of attachment. ξ: configuration not given here. Phe(4-F)ψ(2,4-Thz) = O=C(c1csc([C@H](Cc2ccc(F)cc2)N[*:1])n1)[*:2]; Phe(4-guanidino) = N=C(N)Nc1ccc(C[C@H](N)C(=O)O)cc1; X1 = COc1ccc(C[C@H](N[*:1])c2nc(C(=O)[*:2])cs2)cc1; Phe(4-F) = N[C@@H](Cc1ccc(F)cc1)C(=O)O; hArg = N=C(N)NCCCC[C@H](N)C(=O)O; Cha = N[C@@H](CC1CCCCC1)C(=O)O; Nphe = O=C(O)CNCc1ccccc1; X2 = O=C(/C=C/c1ccccc1)*; ξV = CC(C)C(N)C(=O)O; Sar = CNCC(=O)O

Tests used:
[1] = target: T1, Proteinase-activated receptor 1 (Homo sapiens, UniProt P25116); test: Inhibition of [3H]S-(p-F-Phe)-Har-L-Har-KY-NH2 binding to a thrombin receptor (PAR-1) membrane preparation.
T1 sequence (P25116 whole entry): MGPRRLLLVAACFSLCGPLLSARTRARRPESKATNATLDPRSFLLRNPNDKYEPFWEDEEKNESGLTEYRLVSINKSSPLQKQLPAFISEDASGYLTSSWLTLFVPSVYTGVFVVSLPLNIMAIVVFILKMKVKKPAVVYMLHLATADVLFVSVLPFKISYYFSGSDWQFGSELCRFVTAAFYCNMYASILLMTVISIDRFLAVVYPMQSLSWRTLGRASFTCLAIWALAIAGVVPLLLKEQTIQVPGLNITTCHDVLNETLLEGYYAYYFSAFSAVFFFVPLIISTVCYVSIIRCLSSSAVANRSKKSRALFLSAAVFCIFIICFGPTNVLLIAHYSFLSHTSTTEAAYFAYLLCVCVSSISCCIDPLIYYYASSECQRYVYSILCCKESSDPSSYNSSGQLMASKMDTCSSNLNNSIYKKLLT

[2] = species: Homo sapiens; test: Inhibition of TRAP-6 (SFLLRN-NH2)-induced human gel filtered platelet aggregation (GFP).; format: functional
[3] = species: Homo sapiens; test: Inhibition of alpha-thrombin-induced human gel filtered platelet aggregation (GFP).; format: functional

`CC(C)C[C@H](NC(=O)[C@H](CC(C)C)NC(=O)[C@H](Cc1ccccc1)NC(=O)[C@@H](N)CO)C(=O)N[C@@H](CCCN=C(N)N)C(=O)N[C@@H](CC(N)=O)C(N)=O` was tested, and the IC50 [1] was 73 µM and the IC50 [2] was 0.3 µM.

In the case of `CNCC(=O)N[C@@H](Cc1ccc(F)cc1)c1nc(C(=O)N2CCCC(C(=O)N[C@@H](CCCNC(=N)N)C(=O)N[C@@H](Cc3ccccc3)C(N)=O)C2)cs1` (stereo partly drawn), the IC50 [1] is reported as greater than 100 µM, the IC50 [2] is reported as greater than 100 µM and the IC50 [3] is reported as greater than 100 µM.

`CNCC(=O)N[C@@H](Cc1ccc(F)cc1)c1nc(C(=O)N[C@@H](CC2CCCCC2)C(=O)N[C@@H](CCCN=C(N)N)C(=O)NCc2ccccc2)co1` gave an IC50 [1] of 1.6 µM, an IC50 [2] of 6.6 µM and an IC50 [3] of 25 µM.

With `CNCC(=O)N[C@@H](Cc1ccc(F)cc1)c1nc(C(=O)N[C@@H](Cc2ccccc2)C(=O)N[C@@H](CCCN=C(N)N)C(=O)NCc2ccccc2)cs1` the IC50 [1] was 24 µM, the IC50 [2] was 13 µM and the IC50 [3] was 46 µM.

`CNCC(=O)N[C@@H](Cc1ccc(F)cc1)c1nc(C(=O)N[C@@H](CCCNC(=N)N)C(=O)N[C@@H](CCCNC(=N)N)C(=O)N[C@@H](Cc2ccccc2)C(N)=O)cs1` (H-[Sar][Phe(4-F)ψ(2,4-Thz)]RRF-NH2) showed an IC50 [1] greater than 100 µM.

`CC[C@H](C)[C@H](N)C(=O)N[C@@H](Cc1ccc(F)cc1)c1nc(C(=O)N(CC(=O)N[C@@H](CCCN=C(N)N)C(=O)N[C@@H](Cc2ccccc2)C(N)=O)Cc2ccccc2)cs1` (H-I[Phe(4-F)ψ(2,4-Thz)][Nphe]RF-NH2) was tested, and the IC50 [1] was greater than 100 µM, the IC50 [2] was 80 µM and the IC50 [3] was greater than 100 µM.

Molecule `NCC(=O)N[C@@H](Cc1ccc(F)cc1)c1nc(C(=O)N[C@@H](CC2CCCCC2)C(=O)N[C@@H](CCCN=C(N)N)C(=O)NCc2ccccc2)co1` has an IC50 [1] of 5.4 µM, an IC50 [2] of 10 µM and an IC50 [3] of 17 µM.

With `CNCC(=O)N[C@@H](Cc1ccc(F)cc1)c1nc(C(=O)N[C@@H](CC2CCCCC2)C(=O)N[C@@H](CCCCN=C(N)N)C(=O)N[C@@H](Cc2ccccc2)C(N)=O)cs1` (H-[Sar][Phe(4-F)ψ(2,4-Thz)][Cha][hArg]F-NH2) the IC50 [2] was 7.7 µM and the IC50 [3] was 59 µM.

With `NC(=O)[C@H](Cc1ccccc1)NC(=O)[C@H](CCCN=C(N)N)NC(=O)[C@H](CC1CCCCC1)NC(=O)c1csc([C@@H](N)Cc2ccc(F)cc2)n1` the IC50 [1] was 8 µM, the IC50 [2] was 16 µM and the IC50 [3] was 28 µM.

`CNCC(=O)N[C@@H](Cc1ccccc1)c1nc(C(=O)N[C@@H](CC2CCCCC2)C(=O)N[C@@H](CCCNC(=N)N)C(=O)NCc2ccccc2)c(C)o1` showed an IC50 [1] of 60 µM, an IC50 [2] of 36 µM and an IC50 [3] of 45 µM.

`CNCC(=O)N[C@@H](Cc1ccc(F)cc1)c1nc(C(=O)N[C@@H](CC2CCCCC2)C(=O)N[C@@H](CCCN=C(N)N)C(=O)N[C@@H](Cc2ccccc2)C(N)=O)cs1` gave an IC50 [1] of 5.7 µM, an IC50 [2] of 14 µM and an IC50 [3] of 41 µM.

In the case of `COc1ccc(C[C@H](NC(=O)C(N)C(C)C)c2nc(C(=O)N[C@@H](CC3CCCCC3)C(=O)N[C@@H](CCCNC(=N)N)C(=O)N[C@@H](Cc3ccccc3)C(N)=O)cs2)cc1` (stereo partly drawn) (H-[ξV][X1][Cha]RF-NH2), the IC50 [1] is reported as 8.2 µM.

`CC(C)C[C@H](NC(=O)[C@H](Cc1ccc(NC(=N)N)cc1)NC(=O)[C@H](Cc1ccc(F)cc1)NC(=O)/C=C/c1ccccc1)C(=O)N[C@@H](CCCN=C(N)N)C(=O)N[C@@H](CCCN=C(N)N)C(N)=O` (X2-[Phe(4-F)][Phe(4-guanidino)]LRR-NH2) was tested, and the IC50 [1] was 0.0075 µM and the IC50 [2] was 0.021 µM.

`CC(C)C(N)C(=O)N[C@@H](Cc1ccc(F)cc1)c1nc(C(=O)N[C@@H](CC2CCCCC2)C(=O)N[C@@H](CCCN=C(N)N)C(=O)N[C@@H](Cc2ccccc2)C(N)=O)cs1` (stereo partly drawn) (H-[ξV][Phe(4-F)ψ(2,4-Thz)][Cha]RF-NH2) gave an IC50 [2] of 4.6 µM and an IC50 [3] of 22 µM.

`NCC(=O)N[C@@H](Cc1ccc(F)cc1)c1nc(C(=O)N[C@@H](CC2CCCCC2)C(=O)N[C@@H](CCCN=C(N)N)C(N)=O)co1` gave an IC50 [1] of 6.2 µM, an IC50 [2] of 13 µM and an IC50 [3] of 19 µM.

`CNCC(=O)N[C@@H](Cc1ccc(F)cc1)c1nc(C(=O)N[C@@H](CC2CCCCC2)C(=O)N[C@@H](CCCNC(=N)N)C(=O)NCc2ccccc2)c(C)o1` showed an IC50 [1] of 5 µM, an IC50 [2] of 18 µM and an IC50 [3] of 23 µM.

`COc1ccc(C[C@H](NC(=O)C(N)C(C)C)c2nc(C(=O)N[C@@H](CC3CCCCC3)C(=O)N[C@@H](CCCN=C(N)N)C(=O)N[C@@H](Cc3ccccc3)C(N)=O)cs2)cc1` (stereo partly drawn) (H-[ξV][X1][Cha]RF-NH2) showed an IC50 [2] of 9.5 µM and an IC50 [3] of 49 µM.

Work on `CNCC(=O)N[C@@H](Cc1ccc(F)cc1)c1nc(C(=O)N[C@@H](CC2CCCCC2)C(=O)N[C@@H](CCCN=C(N)N)C(=O)NCCc2ccccc2)cs1` yielded an IC50 [1] of 5.6 µM, an IC50 [2] of 10 µM and an IC50 [3] of 27 µM.

With `CNCC(=O)N[C@@H](Cc1ccc(F)cc1)c1nc(C(=O)N[C@@H](CC2CCCCC2)C(=O)N[C@@H](CCCNC(=N)N)C(=O)NCc2ccccc2)cs1` the IC50 [1] was 10 µM, the IC50 [2] was 11 µM and the IC50 [3] was 27 µM.

For `CNCC(=O)N[C@@H](Cc1ccc(F)cc1)c1nc(C(=O)N[C@@H](CC2CCCCC2)C(=O)N[C@@H](CCCNC(=N)N)C(=O)N[C@@H](CC2CCCCC2)C(N)=O)cs1` (H-[Sar][Phe(4-F)ψ(2,4-Thz)][Cha]R[Cha]-NH2), the IC50 [1] was 2.7 µM.

In the case of `NCCC(=O)N[C@@H](Cc1ccc(F)cc1)c1nc(C(=O)N[C@@H](CC2CCCCC2)C(=O)N[C@@H](CCCN=C(N)N)C(=O)NCc2ccccc2)co1`, the IC50 [1] is reported as 6.7 µM, the IC50 [2] is reported as 36 µM and the IC50 [3] is reported as greater than 100 µM.

`CC(=O)N[C@@H](Cc1ccc(F)cc1)c1nc(C(=O)N[C@@H](CC2CCCCC2)C(=O)N[C@@H](CCCNC(=N)N)C(=O)NCc2ccccc2)c(C)o1` showed an IC50 [1] of 30 µM, an IC50 [2] of 19 µM and an IC50 [3] of 18 µM.

Molecule `CC[C@H](C)[C@H](N)C(=O)N[C@@H](Cc1ccc(F)cc1)c1nc(C(=O)N[C@@H](CC2CCCCC2)C(=O)N[C@@H](CCCN=C(N)N)C(=O)N[C@@H](Cc2ccccc2)C(N)=O)cs1` (H-I[Phe(4-F)ψ(2,4-Thz)][Cha]RF-NH2) has an IC50 [1] of 3.9 µM, an IC50 [2] of 4 µM and an IC50 [3] of 32 µM.

`CNCC(=O)N[C@@H](Cc1ccc(F)cc1)c1nc(C(=O)N[C@@H](CC2CCCCC2)C(=O)N[C@@H](CCCNC(=N)N)C(=O)NCC(C)c2ccccc2)cs1` (stereo partly drawn) showed an IC50 [1] of 24 µM, an IC50 [2] of 16 µM and an IC50 [3] of 40 µM.

`CNCC(=O)N[C@@H](Cc1ccc(F)cc1)c1nc(C(=O)N[C@H](CC2CCCCC2)C(=O)N[C@@H](CCCNC(=N)N)C(=O)N[C@@H](Cc2ccccc2)C(N)=O)cs1` was tested, and the IC50 [1] was 94 µM, the IC50 [2] was 42 µM and the IC50 [3] was 96 µM.

`CNCC(=O)N[C@@H](Cc1ccc(F)cc1)c1nc(C(=O)N[C@@H](CCCN=C(N)N)C(=O)N[C@@H](CCCN=C(N)N)C(=O)N[C@@H](Cc2ccccc2)C(N)=O)cs1` (H-[Sar][Phe(4-F)ψ(2,4-Thz)]RRF-NH2) showed an IC50 [2] greater than 100 µM and an IC50 [3] greater than 100 µM.

`CC(C)C(N)C(=O)N[C@@H](Cc1ccc(F)cc1)c1nc(C(=O)N[C@@H](CC2CCCCC2)C(=O)N[C@@H](CCCNC(=N)N)C(=O)N[C@@H](Cc2ccccc2)C(N)=O)cs1` (stereo partly drawn) (H-[ξV][Phe(4-F)ψ(2,4-Thz)][Cha]RF-NH2) was tested, and the IC50 [1] was 2.7 µM.

`CNCC(=O)N[C@@H](Cc1ccc(F)cc1)c1nc(C(=O)N[C@@H](CCCCN)C(=O)N[C@@H](CCCNC(=N)N)C(=O)NCCc2ccccc2)cs1` was tested, and the IC50 [1] was greater than 100 µM, the IC50 [2] was greater than 100 µM and the IC50 [3] was greater than 100 µM.

Work on `CNCC(=O)N[C@@H](Cc1ccc(F)cc1)c1nc(C(=O)N[C@@H](CC2CCCCC2)C(=O)N[C@@H](CCCN=C(N)N)C(=O)N[C@@H](CC2CCCCC2)C(N)=O)cs1` (H-[Sar][Phe(4-F)ψ(2,4-Thz)][Cha]R[Cha]-NH2) yielded an IC50 [2] of 6.8 µM and an IC50 [3] of 46 µM.

With `CNCC(=O)N[C@@H](Cc1ccc(F)cc1)c1nc(C(=O)N[C@@H](CC2CCCCC2)C(=O)N[C@@H](CCCN=C(N)N)C(=O)N[C@@H](Cc2ccc(O)cc2)C(N)=O)cs1` (H-[Sar][Phe(4-F)ψ(2,4-Thz)][Cha]RY-NH2) the IC50 [1] was 4.1 µM, the IC50 [2] was 5.5 µM and the IC50 [3] was 45 µM.

`Cc1oc([C@H](Cc2ccc(F)cc2)NC(=O)C(N)CN)nc1C(=O)N[C@@H](CC1CCCCC1)C(=O)N[C@@H](CCCN=C(N)N)C(=O)NCc1ccccc1` (stereo partly drawn) showed an IC50 [1] of 53 µM, an IC50 [2] of 25 µM and an IC50 [3] of 24 µM.
